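1) Cells in 96-well plates. 2) Compound, 48 h, 5 concentrations. 3) Linear interpolation between surrounding doses. 4) Unreached endpoint = highest concentration. Here, GI50 denotes the concentration required for 50% inhibition of growth.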 Calls of active or inactive are those of the source. Cut-off read from the data, not from the text of the source: active = GI50 up to about 1.1 µM and inactive = higher.
Tests used:
Assay in all cases: DTP human tumour cell line panel, 48 h
[1] = system: 786-0
[2] = system: A549
[3] = system: CAKI-1
[4] = system: CCRF-CEM
[5] = system: EKVX
[6] = system: HCC 2998
[7] = system: HCT-116
[8] = system: HOP-62
[9] = system: HT-29
[10] = system: K562
[11] = system: KM12
[12] = system: Malme-3M
[13] = system: NCI-H226
[14] = system: OVCAR-8
[15] = system: SF-295
[16] = system: SN12C
[17] = system: SNB-19
[18] = system: SNB-75

Measured: GI50

CC1=NN(c2ccccc2)C(=O)C1=C1SCCCS1
inactive: [1] 35.5 µM | [2] 25.4 µM | [3] 15 µM | [4] 11.7 µM | [5] 30.1 µM | [6] 37 µM | [7] 13.8 µM | [8] 42.1 µM | [9] 32 µM | [10] 21.1 µM | [11] 21.9 µM | [12] 41.8 µM | [13] 29.3 µM | [14] 31.7 µM | [15] 27.2 µM | [16] 28.2 µM | [17] 22.5 µM | [18] > 100 µM

COc1ccccc1/N=C(\N)N/N=C/c1c[nH]c2ccccc12
inactive: [1] 13.3 µM | [2] 13.2 µM | [3] 13.3 µM | [4] 5.93 µM | [5] 11 µM | [6] 2.55 µM | [7] 6.81 µM | [8] 16.3 µM | [9] 4.01 µM | [10] 2.22 µM | [11] 14.9 µM | [12] 2.58 µM | [13] 14.4 µM | [14] 13 µM | [15] 8.97 µM | [16] 10.4 µM | [17] 15.3 µM | [18] 12.3 µM

N#C/C(=C/Sc1ccccc1)C(=O)O
inactive: [1] 22.6 µM | [2] 17.4 µM | [3] 27.3 µM | [4] 9.25 µM | [5] 40.7 µM | [7] 17.4 µM | [8] 43.9 µM | [9] 24.7 µM | [10] 43.1 µM | [11] 19.1 µM | [13] 23.3 µM | [14] 17 µM | [15] 37.3 µM | [16] 20 µM | [17] 56.2 µM | [18] 19.2 µM

CCOP(=O)(OCC)C1CC(C)OC1=O (centres undefined)
inactive: [1] > 100 µM | [2] > 100 µM | [3] > 100 µM | [4] > 100 µM | [5] > 100 µM | [6] > 100 µM | [7] > 100 µM | [8] > 100 µM | [9] > 100 µM | [10] > 100 µM | [11] > 100 µM | [12] > 100 µM | [14] > 100 µM | [15] > 100 µM | [16] > 100 µM | [17] > 100 µM | [18] > 100 µM

Nc1ccc(C(=O)NN2C(=O)C(Cl)C2c2cccc([N+](=O)[O-])c2)cc1 (centres undefined)
inactive: [1] 18.7 µM | [2] 46.3 µM | [3] 19.5 µM | [4] 9.79 µM | [5] 28.2 µM | [6] 24.3 µM | [7] 17.3 µM | [8] 24.6 µM | [9] 20.7 µM | [10] 20.8 µM | [11] 16.2 µM | [12] 20.4 µM | [13] 20.2 µM | [14] 18.1 µM | [15] 20.5 µM | [16] 19.7 µM | [17] 17.3 µM | [18] 18.7 µM

COC(=O)/C(Cl)=C1/CC1COCc1ccccc1 (centres undefined)
inactive: [1] 19.7 µM | [2] 54.7 µM | [3] 22.6 µM | [4] 14 µM | [5] > 10 µM | [6] > 10 µM | [8] > 100 µM | [9] 25 µM | [10] 17.9 µM | [11] 28.7 µM | [12] 26.6 µM | [13] 32.3 µM | [14] 30.5 µM | [15] 53.5 µM | [16] 36.6 µM | [17] 78.9 µM | [18] 47.8 µM

Clc1ccc(C2=NN(c3ccccc3)C3c4cc(Br)ccc4OCC23)cc1 (centres undefined)
inactive: [1] > 100 µM | [2] > 100 µM | [4] 61.9 µM | [5] > 100 µM | [6] > 100 µM | [7] 18.6 µM | [8] > 100 µM | [9] 66.7 µM | [10] 33.8 µM | [11] > 100 µM | [12] 96.4 µM | [14] > 100 µM | [15] 86.3 µM | [17] > 100 µM | [18] > 100 µM

COc1ccc(S(=O)(=O)NC(C)C(=O)O)cc1 (centres undefined)
inactive: [1] > 100 µM | [2] > 100 µM | [3] > 100 µM | [4] > 100 µM | [5] > 100 µM | [9] > 100 µM | [10] > 100 µM | [11] > 100 µM | [12] > 100 µM | [14] > 100 µM | [15] > 100 µM | [16] > 100 µM | [17] > 100 µM | [18] 70.5 µM

O=C1C(Cl)C(c2ccc([N+](=O)[O-])cc2)N1n1cnc2ccccc2c1=O (centres undefined)
inactive: [1] 20.7 µM | [2] 30.7 µM | [3] 60.1 µM | [4] 17.6 µM | [5] 12.7 µM | [6] 73.6 µM | [7] 43.9 µM | [8] 34.5 µM | [9] > 100 µM | [10] 36.9 µM | [11] 89.9 µM | [12] > 100 µM | [13] 51.6 µM | [14] 19.1 µM | [15] 17.6 µM | [16] 42.3 µM | [17] 73.3 µM | [18] 13.9 µM

COc1ccc(CC2=NCCc3cc(OC)c(OC)cc32)cc1Br
inactive: [1] 5.78 µM | [2] 21.6 µM | [3] 12.1 µM | [4] 12.4 µM | [5] 40.6 µM | [6] 14.1 µM | [8] 4.36 µM | [9] 3.18 µM | [10] 3.66 µM | [11] 16.1 µM | [12] 22.8 µM | [13] 4.38 µM | [14] 20.7 µM | [15] 3.48 µM | [16] 15.8 µM | [17] 12.7 µM

COc1c(C(C)C)cc2c3c1OC(=O)[C@@]31CCCC(C)(C)C1CC2 (some centres undefined)
inactive: [1] 46.7 µM | [2] 13.6 µM | [3] > 100 µM | [4] 18.5 µM | [5] 14.6 µM | [6] 50.2 µM | [7] 9.2 µM | [8] 39.4 µM | [9] 25.5 µM | [10] 20.4 µM | [12] 27.2 µM | [13] 4.92 µM | [14] 17.7 µM | [15] 24.5 µM | [16] 51.9 µM | [17] 5.78 µM | [18] 22 µM

N#CC(N)(C(=O)CCC(=O)Nc1cccc(Cl)c1)c1ccc(Cl)cc1 (centres undefined)
inactive: [1] > 100 µM | [2] > 100 µM | [3] > 100 µM | [4] > 100 µM | [5] > 100 µM | [7] > 100 µM | [8] > 100 µM | [9] > 100 µM | [10] > 100 µM | [11] > 100 µM | [12] > 100 µM | [13] > 100 µM | [14] > 100 µM | [15] > 100 µM | [16] > 100 µM | [17] > 100 µM | [18] > 100 µM

O=c1[nH]c2ccc([N+](=O)[O-])cc2nc1/C(=N/Nc1ccccc1)C(O)c1ccco1 (centres undefined)
inactive: [1] > 100 µM | [2] 69.3 µM | [4] 16.6 µM | [5] > 100 µM | [6] 38.5 µM | [7] 73.1 µM | [8] > 100 µM | [9] 66.8 µM | [10] 35.2 µM | [11] 33.6 µM | [12] 63.8 µM | [13] > 100 µM | [14] > 100 µM | [15] 83.4 µM | [16] > 100 µM | [17] > 100 µM | [18] 36.3 µM

CCC12CCCC(=O)N1C(CO)C(c1ccccc1)O2 (centres undefined)
inactive: [1] > 100 µM | [2] > 100 µM | [3] > 100 µM | [4] > 100 µM | [5] > 100 µM | [7] > 100 µM | [8] > 100 µM | [9] > 100 µM | [10] > 100 µM | [11] > 100 µM | [12] > 100 µM | [14] > 100 µM | [15] > 100 µM | [16] > 100 µM | [17] > 100 µM | [18] > 100 µM

O=c1c2cccc3cccc(c4n1CCN=4)c32
inactive: [1] > 100 µM | [2] > 100 µM | [3] 63.4 µM | [4] 80.2 µM | [5] > 100 µM | [7] 57.8 µM | [8] 93.3 µM | [9] > 100 µM | [10] > 100 µM | [11] 76.9 µM | [12] > 100 µM | [13] 56.8 µM | [14] > 100 µM | [15] > 100 µM | [16] > 100 µM | [18] 76.9 µM

CC(=O)Nc1ccc(C2CC(c3ccc([N+](=O)[O-])cc3)=Nc3ccccc3[S+]2[O-])cc1 (centres undefined)
inactive: [1] 9.64 µM | [2] 38.4 µM | [3] > 10 µM | [4] 11.4 µM | [5] 36.5 µM | [6] 16.3 µM | [8] 22.1 µM | [9] 22.6 µM | [10] 4.58 µM | [11] 14.1 µM | [12] > 10 µM | [13] 20.4 µM | [14] 30.5 µM | [15] 28.8 µM | [16] 24.5 µM | [17] 36.8 µM | [18] 16.9 µM

CCOc1ccc2c(c1)[n+]([O-])c(-c1ccccc1)c(N)[n+]2[O-]
inactive: [1] > 100 µM | [2] > 100 µM | [3] 35.6 µM | [4] 50.7 µM | [5] 89.1 µM | [6] 68.5 µM | [8] 71.9 µM | [9] > 100 µM | [10] 45 µM | [11] 97.3 µM | [12] 66.7 µM | [13] > 100 µM | [14] 78.5 µM | [15] > 100 µM | [16] > 100 µM | [17] > 100 µM | [18] > 100 µM

From ChEMBL document CHEMBL1201862, “PubChem BioAssay data set” (2004)
